We go through two compounds from article PMC5131395, “Asperterpenes A and B, two unprecedented meroterpenoids from Aspergillus terreus with BACE1 inhibitory activities” (Chemical Science, 2016).

The experiment deals with BACE1 (Homo sapiens, UniProt P56817). Nature of the experiment: cell-based FRET peptide cleavage assay, HEK-293 cells.
BACE1, sequence (P56817 46-501): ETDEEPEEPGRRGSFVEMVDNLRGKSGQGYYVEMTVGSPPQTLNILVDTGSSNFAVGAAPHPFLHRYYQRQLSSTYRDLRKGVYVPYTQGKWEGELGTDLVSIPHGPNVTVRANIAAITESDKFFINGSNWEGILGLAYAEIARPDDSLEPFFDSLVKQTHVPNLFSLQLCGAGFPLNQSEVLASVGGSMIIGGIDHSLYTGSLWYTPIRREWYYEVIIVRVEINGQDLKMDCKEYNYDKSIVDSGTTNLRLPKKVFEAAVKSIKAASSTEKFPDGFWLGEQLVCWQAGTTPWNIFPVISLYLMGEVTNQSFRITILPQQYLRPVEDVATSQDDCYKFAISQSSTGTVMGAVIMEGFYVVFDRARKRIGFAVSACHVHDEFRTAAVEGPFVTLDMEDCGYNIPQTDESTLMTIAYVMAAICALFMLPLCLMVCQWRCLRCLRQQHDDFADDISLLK

For orientation: IC50 means the midpoint of a concentration-inhibition curve. A lower IC50 goes with inhibition by little substance. `COC(=O)C1=C(C)[C@@]2(C)C[C@H]3[C@@]4(C)CCC(=O)C(C)(C)[C@@H]4CC[C@]3(C)[C@@](C)(C1=O)C2=O` [compound 1, asperterpene A] showed a half-maximal inhibitory concentration (IC50) of 78 nM.
In turn, `COC(=O)CC[C@@]1(C)[C@H](C(C)(C)O)CC[C@@]2(C)[C@H]1C[C@@]1(C)C(=O)[C@]2(C)C(=O)C(C(=O)OC)=C1C` [compound 2, asperterpene B] gave an IC50 of 59 nM.
